The values that follow are results of earlier work, collected in US20140271893A1 (McNeil-PPC, Inc., priority 2013, published 2014).

Molecules are shown by their SMILES.

For data set [1] the following is noted: 30 mg dose administered orally over eight hours.
For data set [2] the following is noted: therapeutic dose.

Take `CNC[C@H](O)c1cccc(O)c1` [phenylephrine, (R)-1-(3-hydroxyphenyl)-2-methylaminoethanol]: in data set [1], the “metabolized to m-hydroxy-phenylglycol-sulfate, % of the dose” value is reported as 6%; the “metabolized to m-hydroxymandelic acid, % of the dose” value is on record as 30%; the “metabolized to phenylephrine-glucuronide, % of the dose” value is on record as 12%; the “metabolized to phenylephrine-sulfate, % of the dose” value is 47%.

For the molecule `CC(=O)Nc1ccc(O)cc1` [acetaminophen], the “fraction of dose excreted unchanged in the urine” value in data set [2] was “Less than 9%”.
